Laboratory results taken from patent US20140045856A1, “4-Methyl-2,3,5,9,9b-pentaaza-cyclopenta[a]naphthalenes” (BOEHRINGER INGELHEIM INTERNATIONAL GMBH, priority 2012, published 2014).

Assays:
PDE10 = PDE10 (Homo sapiens, UniProt Q9Y233); assay: PDE10 assay with fluorescent substrate (IMAP, fluorescence polarization); assay type: biochemical
From the text: (§1) c) Phosphodiesterase (PDE) 2A and 10 Assay with Fluorescent Substrate
(§2) The PDE reaction cleaves cAMP to AMP. The IMAP system (Molecular Device) using fluorescence polarization (FP) as detection principle was used to measure enzyme activity. A fluorescent labeled cAMP was used as substrate for the reaction, generating a labeled AMP. The fluorescent AMP binds specifically to the large M(III)-based nano-particles which reduces the rotational speed of the substrate and thus increases its polarization.
(§3) The inhibition of PDE 2A or 10 enzyme activity was assessed using IMAP-Phosphodiesterase-cAMP fluorescence labeled substrate (Molecular Devices, Order No. R7506), IMAP TR-FRET screening express (Molecular Devices, Order No. R8160, the TR-FRET component will not be used) and PDE 2A or PDE10 protein expressed upon baculovirus infection in SF9 cells. The cells were incubated after infection for ˜3 days and protein production was confirmed by Western Blot. The cells were collected by centrifugation and the pellet frozen in liquid nitrogen before it was resuspended in PBS containing 1% Triton X-100 and protease inhibitors.
(§4) All reactions were performed in 384 well plates, Perkin Elmer black optiplates and IMAP reaction buffer with 0.1% Tween20 (kit component)
(§5) Compounds were serial diluted in DMSO. With an intermediate dilution step with reaction buffer DMSO concentration was reduced to achieve 1% DMSO in the assay reaction. Setup of the assay started with 10 μl enzyme (˜10 ng/well, depending on prep. batch), 5 μl compound, reaction was started by addition of 5 μl labeled cAMP (30 nM, final concentration), immediately mixed for 15 seconds on a Eppendorf mixmate (2000 rpm) followed by an incubation at room temperature for 90 minutes in the dark. Reaction is stopped by adding of 60 μl binding buffer for FP/cAMP (kit component).
(§6) Each assay plate contained wells with vehicle controls (1% DMSO) for the measurement of non-inhibited reaction (=100% control) and wells without enzyme as 0% controls.

[1] = Metabolic stability in pooled liver microsomes; assay type: in vitro ADME; conditions: human liver microsomes, 37° C., 1 mg/mL microsomal protein, test compound 1 μM, NADPH
Method: The metabolic stability of the compounds according to the invention has been investigated as follows:
The metabolic degradation of the test compound was assayed at 37° C. with pooled liver microsomes from various species. The final incubation volume of 100 μl per time point contains TRIS buffer pH 7.6 at room temperature (0.1 M), magnesium chloride (5 mM), microsomal protein (1 mg/mL for human and dog, 0.5 mg/mL for other species) and the test compound at a final concentration of 1 μM. Following a short preincubation period at 37° C., the reactions were initiated by addition of betanicotinamide adenine dinucleotide phosphate, reduced form (NADPH, 1 mM), and terminated by transferring an aliquot into solvent after different time points. […] The half-life was determined by the slope of the semi-logarithmic plot of the concentration-time profile.

PDE2A = PDE2A (Homo sapiens, UniProt O00408); assay: PDE 2A assay with fluorescent substrate (IMAP, fluorescence polarization); assay type: biochemical; conditions: read-out: PDE2 IC50
PDE2A, sequence (O00408 whole entry, species assumed): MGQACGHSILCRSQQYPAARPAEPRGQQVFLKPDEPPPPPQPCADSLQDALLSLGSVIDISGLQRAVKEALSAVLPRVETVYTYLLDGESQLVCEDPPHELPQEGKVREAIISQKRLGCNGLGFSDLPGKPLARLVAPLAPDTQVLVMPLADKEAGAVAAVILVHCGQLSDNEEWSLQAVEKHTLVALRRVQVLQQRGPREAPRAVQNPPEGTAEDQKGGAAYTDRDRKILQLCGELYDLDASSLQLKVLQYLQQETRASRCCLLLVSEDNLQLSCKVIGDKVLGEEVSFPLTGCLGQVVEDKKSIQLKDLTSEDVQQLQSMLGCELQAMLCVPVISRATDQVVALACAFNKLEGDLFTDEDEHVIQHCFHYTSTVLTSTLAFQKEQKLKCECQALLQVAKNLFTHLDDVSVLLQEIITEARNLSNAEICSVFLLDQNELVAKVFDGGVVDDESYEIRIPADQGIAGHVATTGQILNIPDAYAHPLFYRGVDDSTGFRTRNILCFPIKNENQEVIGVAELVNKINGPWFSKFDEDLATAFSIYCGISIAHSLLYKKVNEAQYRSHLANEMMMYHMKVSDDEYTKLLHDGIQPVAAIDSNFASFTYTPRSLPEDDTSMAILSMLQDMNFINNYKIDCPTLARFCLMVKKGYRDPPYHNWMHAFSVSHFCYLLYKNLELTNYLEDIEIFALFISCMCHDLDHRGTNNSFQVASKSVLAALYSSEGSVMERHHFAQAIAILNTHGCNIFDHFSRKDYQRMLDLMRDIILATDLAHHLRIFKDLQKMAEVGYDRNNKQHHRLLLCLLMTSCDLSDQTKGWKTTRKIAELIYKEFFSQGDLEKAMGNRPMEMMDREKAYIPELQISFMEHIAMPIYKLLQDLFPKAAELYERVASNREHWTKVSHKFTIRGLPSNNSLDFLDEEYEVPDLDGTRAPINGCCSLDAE
From the text: as §1, §2, §3, §4, §5, §6

PDE10, sequence (Q9Y233 whole entry, species assumed): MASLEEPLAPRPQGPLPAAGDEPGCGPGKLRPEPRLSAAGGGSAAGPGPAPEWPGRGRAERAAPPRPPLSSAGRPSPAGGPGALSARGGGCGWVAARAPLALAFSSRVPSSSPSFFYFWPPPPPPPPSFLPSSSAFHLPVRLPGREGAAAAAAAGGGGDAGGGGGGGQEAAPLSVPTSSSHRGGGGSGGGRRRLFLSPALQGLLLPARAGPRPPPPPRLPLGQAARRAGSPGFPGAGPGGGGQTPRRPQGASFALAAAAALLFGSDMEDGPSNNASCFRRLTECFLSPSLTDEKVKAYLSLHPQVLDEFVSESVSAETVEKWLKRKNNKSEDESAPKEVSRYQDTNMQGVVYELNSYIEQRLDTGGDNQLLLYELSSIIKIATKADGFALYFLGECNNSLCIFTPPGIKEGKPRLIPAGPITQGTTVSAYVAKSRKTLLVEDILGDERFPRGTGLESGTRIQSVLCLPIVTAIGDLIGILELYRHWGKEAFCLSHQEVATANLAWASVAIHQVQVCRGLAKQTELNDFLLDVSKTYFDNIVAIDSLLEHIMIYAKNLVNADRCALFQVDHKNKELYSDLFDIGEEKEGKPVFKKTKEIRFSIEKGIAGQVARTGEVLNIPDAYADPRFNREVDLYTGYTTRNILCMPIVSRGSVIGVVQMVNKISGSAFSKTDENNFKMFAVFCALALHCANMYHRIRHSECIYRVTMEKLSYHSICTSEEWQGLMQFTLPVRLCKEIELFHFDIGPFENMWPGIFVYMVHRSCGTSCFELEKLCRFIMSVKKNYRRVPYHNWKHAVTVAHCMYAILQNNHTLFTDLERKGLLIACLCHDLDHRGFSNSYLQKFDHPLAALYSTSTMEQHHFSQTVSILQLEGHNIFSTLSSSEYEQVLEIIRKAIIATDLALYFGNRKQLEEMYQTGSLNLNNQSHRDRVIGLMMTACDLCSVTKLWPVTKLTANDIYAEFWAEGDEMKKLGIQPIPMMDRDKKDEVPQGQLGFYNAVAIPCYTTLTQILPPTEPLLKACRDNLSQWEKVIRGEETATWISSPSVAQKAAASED

Row | SMILES | IC50 (PDE10) | Half-life - t½ [1] | IC50 (PDE2A)
1 | Cc1nc2ccc(C3CC3)nc2n2c(-c3cc(OC4COCC4O)ccc3Cl)nnc12 (racemic) [Example 56] | 0.061 µM |  | 
2 | Cc1ccc(OC2COCC2O)cc1-c1nnc2c(C)nc3ccc(C4CC4)nc3n12 (racemic) [Example 57] |  | 2.17 h | 
3 | Cc1nc2ccc(C3CC3)nc2n2c(-c3cc(OC4COCC4O)ccc3Cl)nnc12 (racemic) [Example 58a] |  | 2.17 h | 
4 | Cc1nc2ccc(C3CC3)nc2n2c(-c3cc(C4(O)CCOC4)ccc3Cl)nnc12 (racemic) [Example 97] |  |  | 0.004 µM
5 | Cc1nc2ccc(C3CC3)nc2n2c(-c3cc(C4(O)CCOCC4O)ccc3F)nnc12 (racemic) [Example 105] | 1.54 µM |  | 
6 | Cc1nc2cccnc2n2c(-c3cc(OC4COCC4O)ccc3Cl)nnc12 (single isomer, unassigned) [Example 55a] | 2.44 µM | 2.17 h | 
7 | Cc1ccc(OC2COCC2O)cc1-c1nnc2c(C)nc3ccc(C4CC4)nc3n12 (single isomer, unassigned) [Example 57a] |  | 2.17 h | 
8 | Cc1nc2ccc(C3CC3)nc2n2c(-c3cc(OC4COCC4O)ccc3Cl)nnc12 (single isomer, unassigned) [Example 58b] |  | 2.17 h | 
9 | Cc1nc2ccc(C3CC3)nc2n2c(-c3cc(OC4COCC4O)ccc3Cl)nnc12 (single isomer, unassigned) [Example 58c] |  | 2.17 h | 
10 | Cc1nc2ccc(C3CC3)nc2n2c(-c3cc(C4(O)CCOC4)ccc3Cl)nnc12 (single isomer, unassigned) [Example 97a] | 5.94 µM |  | 
11 | Cc1nc2ccc(C3CC3)nc2n2c(-c3cc(C4(O)CCOC4)ccc3Cl)nnc12 (single isomer, unassigned) [Example 97b] | 0.891 µM |  | 
12 | Cc1nc2cccnc2n2c(-c3cc(C4(O)CCOC4)ccc3Cl)nnc12 (single isomer, unassigned) [Example 98] | 1.56 µM |  | 0.139 µM
13 | Cc1nc2ccc(C(F)(F)F)nc2n2c(-c3cc(OC4COCC4O)ccc3F)nnc12 (single isomer, unassigned) [Example 106a] | 1.41 µM |  | 0.429 µM
14 | Cc1nc2ccc(C(F)(F)F)nc2n2c(-c3cc(OC4COCC4O)ccc3F)nnc12 (single isomer, unassigned) [Example 106b] | 2.5 µM |  | 0.05 µM
16 | Cc1nc2ccc(C3CC3)nc2n2c(-c3cc(OC4COCCC4O)ccc3F)nnc12 (single isomer, unassigned) [Example 108b] | 0.594 µM |  | […]
17 | Cc1nc2ccc(C3CC3)nc2n2c(-c3cc(OC4CCOCC4O)ccc3F)nnc12 (single isomer, unassigned) [Example 108c] | 0.262 µM |  | 
18 | Cc1nc2ccc(C3CC3)nc2n2c(-c3cc(OC4CCOCC4O)ccc3F)nnc12 (single isomer, unassigned) [Example 108d] | 0.63 µM |  | 
19 | Cc1nc2ccc(C3CC3)nc2n2c(-c3cc(OC4COCCC4O)ccc3Cl)nnc12 (single isomer, unassigned) [Example 109a] | 1.67 µM |  | 0.014 µM
20 | Cc1nc2ccc(C3CC3)nc2n2c(-c3cc(OC4CCOCC4O)ccc3Cl)nnc12 (single isomer, unassigned) [Example 109b] | 1.09 µM |  | 0.009 µM
21 | Cc1nc2ccc(C3CC3)nc2n2c(-c3cc(OC4CCOCC4O)ccc3Cl)nnc12 (single isomer, unassigned) [Example 109c] | 1.36 µM |  | 0.009 µM

Row | SMILES | IC50 (PDE10) | Half-life - t½ [1] | IC50 (PDE2A)
22 | Cc1nc2ccc(C3CC3)nc2n2c(-c3cc(OC4COCCC4O)ccc3Cl)nnc12 (single isomer, unassigned) [Example 109d] | 1.83 µM |  | 0.004 µM
23 | Cc1nc2ccc(C(F)(F)F)nc2n2c(-c3cc(OC4COCCC4O)ccc3F)nnc12 (single isomer, unassigned) [Example 110b] | > 10 µM |  | 0.388 µM
24 | Cc1nc2ccc(C(F)(F)F)nc2n2c(-c3cc(OC4CCOCC4O)ccc3F)nnc12 (single isomer, unassigned) [Example 110d] |  |  | 0.467 µM
25 | Cc1nc2ccc(C3CC3)nc2n2c(-c3cc(O)ccc3F)nnc12 [Example 5] | 0.005 µM |  | 
26 | Cc1ccc(O)cc1-c1nnc2c(C)nc3ccc(C4CC4)nc3n12 [Example 6] | 0.01 µM |  | 0.003 µM
27 | Cc1ccc(O)cc1-c1nnc2c(C)nc3ccc(C(C)C)nc3n12 [Example 7] | 0.016 µM |  | 0.003 µM
28 | Cc1nc2ccc(C(C)C)nc2n2c(-c3cc(O)ccc3F)nnc12 [Example 8] | 0.008 µM |  | 0.002 µM
29 | Cc1nc2ccc(C3CC3)nc2n2c(-c3cc(O)ccc3Cl)nnc12 [Example 9] | 0.015 µM |  | 0.001 µM
30 | Cc1cnc2c(c1)nc(C)c1nnc(-c3cc(O)ccc3Cl)n12 [Example 11] | 0.123 µM |  | 0.059 µM
31 | Cc1nc2ccc(C(F)(F)F)nc2n2c(-c3cc(O)ccc3Cl)nnc12 [Example 12] | 0.044 µM |  | 0.009 µM
32 | Cc1ccc(O)cc1-c1nnc2c(C)nc3ccc(C(F)(F)F)nc3n12 [Example 12a] | 0.17 µM |  | 0.036 µM
33 | Cc1nc2cccnc2n2c(-c3cc(OC[C@@H](C)O)ccc3Cl)nnc12 [Example 17] |  | 2.17 h | 
34 | Cc1nc2cccnc2n2c(-c3cc(OCC4(O)CC4)ccc3Cl)nnc12 [Example 43a] | 4.51 µM |  | 0.109 µM
35 | Cc1ccc2nc(C)c3nnc(-c4cc(OCC(C)(C)O)ccc4Cl)n3c2n1 [Example 46] |  | 2.17 h | 0.05 µM
36 | Cc1ccc(OCC(C)(C)O)cc1-c1nnc2c(C)nc3ccc(C(C)C)nc3n12 [Example 51] |  | 2.17 h | 0.009 µM
37 | Cc1nc2cccnc2n2c(-c3cc(OCC4(O)CCC4)ccc3F)nnc12 [Example 53] | 2.83 µM |  | 0.14 µM
38 | Cc1ccc2nc(C)c3nnc(-c4cc(CO)ccc4Cl)n3c2n1 [Example 60] | 0.285 µM |  | 
39 | CCCC(O)c1ccc(Cl)c(-c2nnc3c(C)nc4ccc(C)nc4n23)c1 (centres unmarked) [Example 61] | 0.534 µM |  | 0.004 µM
40 | CCC(O)c1ccc(Cl)c(-c2nnc3c(C)nc4ccc(C)nc4n23)c1 (centres unmarked) [Example 62] |  | 2.17 h | 0.011 µM
41 | Cc1nc2cccnc2n2c(-c3cc(CCC(C)(C)O)ccc3F)nnc12 [Example 65] | 3.54 µM |  | 
42 | Cc1nc2ccc(C3CC3)nc2n2c(-c3cc(CCC(C)(C)O)ccc3Cl)nnc12 [Example 69] | 0.891 µM |  | 0.001 µM

Row | SMILES | IC50 (PDE10) | Half-life - t½ [1] | IC50 (PDE2A)
43 | Cc1ccc2nc(C)c3nnc(-c4cc(C(C)(C)O)ccc4Cl)n3c2n1 [Example 71] |  | 2.17 h | 0.109 µM
44 | Cc1nc2ccc(C3(C)CC3)nc2n2c(-c3cc(C(C)(C)O)ccc3F)nnc12 [Example 72] |  | 2.17 h | 0.032 µM
45 | Cc1ccc(C2(O)CCC2)cc1-c1nnc2c(C)nc3cccnc3n12 [Example 73] |  | 2.17 h | 0.189 µM
46 | Cc1nc2cccnc2n2c(-c3cc(C4(O)CCOC4)ccc3Cl)nnc12 (centres unmarked) [Example 74] | 2.34 µM |  | 0.131 µM
47 | Cc1nc2ccc(C(C)C)nc2n2c(-c3cc(C(C)(C)O)ccc3Cl)nnc12 [Example 77] | 1.4 µM |  | 
48 | Cc1ccc(C(C)(C)O)cc1-c1nnc2c(C)nc3ccc(C(C)C)nc3n12 [Example 78] | 2.85 µM |  | 0.01 µM
49 | Cc1ccc(C(C)(C)O)cc1-c1nnc2c(C)nc3cc(C(C)C)cnc3n12 [Example 79] |  |  | 0.144 µM
50 | Cc1ccc(CC(C)(C)O)cc1-c1nnc2c(C)nc3ccc(C4CC4)nc3n12 [Example 81] | 5.38 µM |  | 0.007 µM
51 | Cc1nc2cccnc2n2c(-c3cc(C4(O)CCC4)ccc3F)nnc12 [Example 86] | 5.75 µM |  | 0.434 µM
52 | Cc1ccc2nc(C)c3nnc(-c4cc(C5(O)CCC5)ccc4F)n3c2n1 [Example 90] | 0.485 µM |  | 0.103 µM
53 | Cc1nc2ccc(C(C)C)nc2n2c(-c3cc(C4(O)CCC4)ccc3Cl)nnc12 [Example 91] | 0.077 µM |  | 0.001 µM
54 | Cc1nc2ccc(C(C)C)nc2n2c(-c3cc(C4(O)CCC4)ccc3F)nnc12 [Example 92] | 0.553 µM |  | 0.002 µM
55 | Cc1nc2ccc(C3CC3)nc2n2c(-c3cc(C4(O)CCOCC4)ccc3Cl)nnc12 [Example 94] | 2.72 µM |  | 0.001 µM
56 | Cc1nc2ccc(C3CC3)nc2n2c(-c3cc(C4(O)CCOCC4)ccc3F)nnc12 [Example 95] | 1.37 µM |  | 0.005 µM
57 | Cc1nc2ccc(C(F)(F)F)nc2n2c(-c3cc(C4(O)CCOCC4)ccc3Cl)nnc12 [Example 96] |  |  | 0.043 µM
58 | Cc1nc2ccc(C(F)(F)F)nc2n2c(-c3cc(C4(O)CCOCC4)ccc3F)nnc12 [Example 96a] |  |  | 0.199 µM
59 | Cc1ccc(C2(O)CCOCC2)cc1-c1nnc2c(C)nc3ccc(C(F)(F)F)nc3n12 [Example 96b] |  |  | 0.087 µM
60 | Cc1nc2ccc(C(F)(F)F)nc2n2c(-c3cc(C4(O)CCOC4)ccc3F)nnc12 (centres unmarked) [Example 96c] | 7.46 µM |  | 
61 | Cc1nc2ccc(C3CC3)nc2n2c(-c3cc(C(C)(C)CO)ccc3F)nnc12 [Example 101] | 1.13 µM |  | 
62 | Cc1ccc(C2(O)CCOCC2)cc1-c1nnc2c(C)nc3ccc(C4CC4)nc3n12 [Example 103] | 1.01 µM |  | 0.003 µM
63 | Cc1nc2ccc(C(F)(F)F)nc2n2c(-c3cc(C(C)(C)O)ccc3F)nnc12 [Example 103c] | 7980 µM |  | 0.622 µM
